Reference: patent US20260000685A1, “PHARMACEUTICAL COMPOSITION FOR PREVENTING OR TREATING DEGENERATIVE BRAIN DISEASES, COMPRISING CANNABINOIDS AS ACTIVE INGREDIENT, AND USES THEREOF” (NEOCANNBIO CO., LTD., priority 2022, published 2026)

Assays:
[1] = system: Alzheimer's animal model (Aβ1-42 treated mice); assay: Morris water maze test in Aβ1-42 Alzheimer's animal model; assay type: in vivo, ICR mice; details: compared to mice treated only with Aβ1-42; for learning ability (finding submerged platform during training session): CBDA 6.25 μM or THCA 12.5 μM, 3 μL/mouse into hippocampus, FIGS. 11 and 12; for time spent in the target quadrant (probe test) / time spent in the platform area (probe test) / number of times crossed the platform area (probe test): probe test on the 5th day; for time spent in the target quadrant (probe test): FIG. 13A; for time spent in the platform area (probe test): FIG. 13B; for number of times crossed the platform area (probe test): FIG. 13C
Procedure: (§1) Female ICR mice (8 weeks old) used in the experiment were purchased from Coretech (Pyeongtaek, Korea). Mice were housed in the animal care facility of the Korea Institute of Science and Technology (KIST) (temperature 22±2° C., humidity 40-60%, 12-hour light/dark cycle). Mice were housed in an environment with free access to food and water. All animal experiments were conducted in accordance with the protocol approval of the Animal Ethics Committee of our institution.
(§2) Next, to create an animal model, mice were randomly selected and divided into four groups as follows: PBS treated group (PBS+PBS), Aβ1-42 treated group (Aβ1-42 +PBS) (Alzheimer's animal model), CBDA treated group (Δβ1-42+CBDA (6.25 µM, 3 μL/mouse)), and THCA treated group (Δβ1-42+THCA (12.5 μM, 3 μL/mouse)).
(§3) After anesthetizing the isolated mice by intraperitoneal (i.p.) injection of avertin (250 mg/kg), the mice were fixed in a stereotaxic apparatus, and CBDA, THCA, Aβ1-42, or PBS (3 μl/15 min/mouse) were gradually delivered to the hippocampus using a Hamilton syringe (coordinates of bregma: mediolateral (ML)=1.30 mm, anteroposterior (AP)=−2.00 mm, dorsoventral=−2.20 mm).
Specifically, a circular tank (diameter 90 cm, height 50 cm, water temperature 22 ±2° C.) was used for the test, and the tank consisted of four quadrants filled with water. An escape platform (diameter 6 cm, height 29 cm) was submerged 1 cm below the water surface in the center of one of the four quadrants. Experimental mice were trained for 4 days to learn and memorize visual cues placed outside the tank indicating the platform location. The swimming paths of the experimental mice were recorded with a camera connected to a video recorder and path tracking software (EthoVision; Noldus Information Technology, Wageningen, The Netherlands). Four tests were conducted daily during the 4-day training period. During each trial, the experimental mice were allowed 60 seconds to find the hidden platform and an additional 30 seconds to remain on the platform. […] The average time it took each experimental mouse to find the platform (average escape latency) was recorded. Probe tests were conducted 4 days later in the same manner without the platform. Each experimental mouse was allowed to move freely for 60 seconds, which was recorded. Videos were analyzed using tracking software (EthoVision; Noldus Information Technology, Wageningen, The Netherlands) to calculate the time spent in the target quadrant area and the number of crossings in the platform area.

[2] = system: phosphorylated tau (p-Tau); assay: Western blotting of Tau/p-Tau in Aβ1-42-treated primary neuronal cells; assay type: cell-based, ICR mice; details: with Aβ1-42 (5 μM), 24 hours; compared to Aβ1-42 alone; FIG. 7
Procedure: (§4) To conduct Western blotting, tissues were homogenized in radioimmunoprecipitation assay buffer (Cell Signaling) to acquire tissue lysates. Tissue protein concentrations were determined using the Bio-Rad protein assay (Bio-Rad, Hercules, CA, USA), and Western blot analysis was conducted using 80-120 μg of protein. Next, the Western blotting samples prepared using the proteins were separated using 12% SDS-PAGE and transferred to a polyvinylidene fluoride membrane (PVDF) (Merck Millipore, Burlington, MA, USA; 0.4 μm). The PVDF was blocked with tris-buffered saline including 5% bovine serum albumin and Tween-20, and incubated with primary antibodies overnight at 4° C. After primary antibody incubation, the samples were incubated with HRP-conjugated secondary antibody (Sigma; 1:5000) for 1 hour at room temperature, and immunodetection was conducted using an enhanced chemiluminescence detection kit (GE Healthcare, Chicago, IL, USA).
Specifically, primary neuronal cells derived from ICR mice were cultured for 6 days, and then treated with CBDA, THCA, THC, or CBN compounds while treating with Aβ1-42 (5 μM), and treated together for 24 hours. Next, to confirm the expression levels of Tau and phosphorylated Tau (p-Tau) in the cells, Western blotting was conducted using the method disclosed in Example 4 above.

[3] = system: p-CREB (CAMP Response Element-Binding Protein); assay: Western blot of p-CREB in hippocampal tissues of animal model; assay type: in vivo, ICR mice; details: day 19; compared to Aβ1-42 treated group; FIG. 17
Procedure: as §4
Specifically, hippocampal tissues were acquired on day 19 from the animal models created in Example 7 above (PBS treated group, Aβ1-42 treated group, CBDA treated group, and THCA treated group), and Western blot analysis was conducted on the hippocampal tissues to evaluate the expression levels of BDNF, p-CREB, and p-TrKB.

[4] = system: Alzheimer's animal model (Aβ1-42 treated mice); assay: Novel object recognition test (NOR) in Aβ1-42 Alzheimer's animal model; assay type: in vivo, ICR mice; details: compared to mice treated with only Aβ1-42; FIG. 14
Procedure: as §1, §2, §3
First, the Novel Object Recognition Test (NOR) was conducted to examine a natural tendency of the experimental mice to explore novel stimuli. For this purpose, during the habituation session conducted 2 days before the test, the mice were allowed to explore the test environment consisting of an opaque custom-made Plexiglas box (35 cm×45 cm×25 cm) for 10 minutes. The sample object phase was conducted 24 hours later. Two identical white circular cylinders (sample objects) were placed on opposite edges of the test environment, and mice were given access to the objects for 10 minutes. After 4 hours (novel object stage), one of the sample objects in the test environment was replaced with a similarly sized novel object (colored miniature animal), and the mouse was allowed to contact this novel arrangement for 5 minutes. The time when the mouse's nose stayed <1 cm away from the object was considered the time the mouse explored the object, excluding the time when the mouse stood on the object. The identification rate was calculated as the time spent exploring the novel object relative to the time spent exploring the two objects.

[5] = system: primary cortical neuron cells; assay: Intracellular calcium concentration in neuronal cells (fluo-4 AM fluorescence imaging); assay type: cell-based; details: CBDA (6.25 μM), THCA (12.5 μM), THC (12.5 μM) with Aβ1-42 (5 μM), 24 hours; compared to Aβ1-42 alone; FIG. 8 and 9
Procedure: Specifically, primary cortical neuron cells were seeded in 96-wells at 5×10^5 cells per well and cultured for 6 days. […] Next, to measure the concentration of calcium ions in neuronal cells by detecting Ca^2+ using fluorescence imaging, the cells were washed with PBS and treated with 10 μM Ca^2+ indicator fluo-4 AM (Thermo) for […]. The stained sections were washed with PBS, covered with Prolong Gold Antifide Reagent (Invitrogen, Carlsbad, CA, USA) including DAPI nuclear stain, and observed using a microscope (Carl Zeiss, Oberkochen, Germany). Fluo-4 AM fluorescence signal intensity was measured using the Image J analysis program (National Institute of Health, Bethesda, […], USA).

SMILES	learning ability (finding submerged platform during training session) [1]	time spent in the target quadrant (probe test) [1]	time spent in the platform area (probe test) [1]	number of times crossed the platform area (probe test) [1]	expression level of p-Tau [2]	phosphorylation level of p-Tau [2]	expression level of p-CREB in hippocampal tissues [3]	identification rate (NOR) [4]	time investigating the novel object [4]	intracellular calcium ion concentration [5]
CCCCCc1cc2c(c(O)c1C(=O)O)[C@@H]1C=C(C)CC[C@H]1C(C)(C)O2 [THCA, (6aR, 10aR)-1-Hydroxy-6,6,9-trimethyl-3-pentyl-6a,7,8,10a-tetrahydro-6H-benzo[c]chromene-2-carboxylic acid]	significantly enhanced	spent more time	spent more time	increased	significantly reduced	significantly reduced	significantly increased	significantly increased	spent more time	significantly reduced
C=C(C)[C@@H]1CCC(C)=C[C@H]1c1c(O)cc(CCCCC)c(C(=O)O)c1O [CBDA]	significantly enhanced	spent more time	spent more time	increased	significantly reduced	significantly reduced	significantly increased	significantly increased	spent more time	significantly reduced
